Laboratory results from PubChem BioAssay (NCI).
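All cell lines were grown in 96-well plates and treated with compound for 48 hours. TGI marks complete inhibition of growth.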

Assays:
Assay in all cases: growth of human tumour cells (NCI), 48 h
M14 melanoma = test system: M14 melanoma
HOP-92 NSCLC = test system: HOP-92 NSCLC
OVCAR-5 ovarian = test system: OVCAR-5 ovarian
T-47D breast = test system: T-47D breast
NCI/ADR-RES ovarian = test system: NCI/ADR-RES ovarian
ACHN renal = test system: ACHN renal
PC-3 prostate = test system: PC-3 prostate
DU-145 prostate = test system: DU-145 prostate
MDA-MB-435 = test system: MDA-MB-435
SF-295 CNS = test system: SF-295 CNS
NCI-H522 lung = test system: NCI-H522 lung
SF-268 CNS = test system: SF-268 CNS
OVCAR-8 ovarian = test system: OVCAR-8 ovarian
LOX IMVI melanoma = test system: LOX IMVI melanoma
UO-31 renal = test system: UO-31 renal
KM12 colon = test system: KM12 colon
SF-539 CNS = test system: SF-539 CNS
SW-620 colon = test system: SW-620 colon
A498 renal = test system: A498 renal
EKVX NSCLC = test system: EKVX NSCLC
786-0 renal = test system: 786-0 renal
SK-MEL-2 melanoma = test system: SK-MEL-2 melanoma
MOLT-4 leukemia = test system: MOLT-4 leukemia
SK-MEL-28 melanoma = test system: SK-MEL-28 melanoma
SK-OV-3 ovarian = test system: SK-OV-3 ovarian
NCI-H460 lung = test system: NCI-H460 lung
U251 CNS = test system: U251 CNS
HL-60(TB) leukemia = test system: HL-60(TB) leukemia
TK-10 renal = test system: TK-10 renal
OVCAR-4 ovarian = test system: OVCAR-4 ovarian
HCT-116 colon = test system: HCT-116 colon
MDA-N = test system: MDA-N
HCT-15 colon = test system: HCT-15 colon
SR leukemia = test system: SR leukemia
NCI-H23 lung = test system: NCI-H23 lung
UACC-257 melanoma = test system: UACC-257 melanoma
MDA-MB-231 breast = test system: MDA-MB-231 breast
NCI-H226 lung = test system: NCI-H226 lung
MCF7 breast = test system: MCF7 breast
OVCAR-3 ovarian = test system: OVCAR-3 ovarian
HCC-2998 colon = test system: HCC-2998 colon
RXF 393 renal = test system: RXF 393 renal
K-562 leukemia = test system: K-562 leukemia
IGROV1 ovarian = test system: IGROV1 ovarian
HS 578T breast = test system: HS 578T breast
RPMI-8226 leukemia = test system: RPMI-8226 leukemia
SK-MEL-5 melanoma = test system: SK-MEL-5 melanoma
HT29 colon = test system: HT29 colon
HOP-62 NSCLC = test system: HOP-62 NSCLC
CAKI-1 renal = test system: CAKI-1 renal
CCRF-CEM leukemia = test system: CCRF-CEM leukemia

For `COc1cc(C=C2C(C)=NN(c3cccc(Cl)c3)C23C(Cl)C(=O)N3c2nc3ccccc3s2)ccc1O` (stereo unspecified), the TGI (M14 melanoma) was 41.9 µM, the TGI (HOP-92 NSCLC) was 26.1 µM and the TGI (OVCAR-5 ovarian) was 50.9 µM. The TGI (T-47D breast) was greater than 100 µM, the TGI (NCI/ADR-RES ovarian) was greater than 100 µM and the TGI (ACHN renal) was 39.1 µM. For the same molecule, the TGI (PC-3 prostate) was 30.4 µM, the TGI (DU-145 prostate) was 48.7 µM and the TGI (MDA-MB-435) was 35.1 µM. The TGI (SF-295 CNS) was greater than 100 µM, the TGI (NCI-H522 lung) was 12.5 µM and the TGI (SF-268 CNS) was 16 µM. It also gave a TGI (OVCAR-8 ovarian) of 41.5 µM, a TGI (LOX IMVI melanoma) of 40.2 µM and a TGI (UO-31 renal) of 55 µM. The TGI (KM12 colon) was 30.1 µM, the TGI (SF-539 CNS) was greater than 100 µM and the TGI (SW-620 colon) was 26 µM. For the same molecule, the TGI (A498 renal) was 35.2 µM, the TGI (EKVX NSCLC) was greater than 100 µM and the TGI (786-0 renal) was 43.7 µM. It also gave a TGI (SK-MEL-2 melanoma) of 36.3 µM, a TGI (MOLT-4 leukemia) of 21.1 µM and a TGI (SK-MEL-28 melanoma) greater than 100 µM. The TGI (SK-OV-3 ovarian) was 59.5 µM, the TGI (NCI-H460 lung) was 66.1 µM and the TGI (U251 CNS) was 35 µM. For the same molecule, the TGI (HL-60(TB) leukemia) was 36 µM, the TGI (TK-10 renal) was greater than 100 µM and the TGI (OVCAR-4 ovarian) was greater than 100 µM. For the same molecule, the TGI (HCT-116 colon) was 45 µM, the TGI (MDA-N) was 74.7 µM and the TGI (HCT-15 colon) was 52.2 µM. For the same molecule, the TGI (SR leukemia) was 17.2 µM, the TGI (NCI-H23 lung) was 57.4 µM and the TGI (UACC-257 melanoma) was 73.1 µM. The TGI (MDA-MB-231 breast) was 26.7 µM, the TGI (NCI-H226 lung) was 63.6 µM and the TGI (MCF7 breast) was greater than 100 µM. For the same molecule, the TGI (OVCAR-3 ovarian) was 72.2 µM, the TGI (HCC-2998 colon) was 9.16 µM and the TGI (RXF 393 renal) was 30.3 µM. It also gave a TGI (K-562 leukemia) of 25.2 µM, a TGI (IGROV1 ovarian) of 48.4 µM and a TGI (HS 578T breast) of 43 µM. For the same molecule, the TGI (RPMI-8226 leukemia) was 30.5 µM, the TGI (SK-MEL-5 melanoma) was 36.9 µM and the TGI (HT29 colon) was 26.7 µM. The TGI (HOP-62 NSCLC) was 69.1 µM, the TGI (CAKI-1 renal) was 71.5 µM and the TGI (CCRF-CEM leukemia) was 38.8 µM.
